Source: the supplement of paper PMC6045584
± gives the standard deviation of the averaged measurements.

How the values were obtained:
[1] = compound: O=C(CCCCCCC(=O)Nc1ccccc1)NO [VORINOSTAT]; test: surviving fraction relative to DMSO-only wells; higher = less growth inhibition; conditions: exposure time: 5 days
Summary of the method: (§1)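 For each tumour cell line, log-phase cells were put into 384-well plates at 250–500 cells per well, then after 24 hours exposed continuously for five days to inhibitors at 0.5, 1, 5, 10, 50, 100, 500 and 1000 nM. Viability was assessed by CellTiter-Glo luminescence, with surviving fraction expressed relative to the median of DMSO-only wells. Lines were screened three times and retained only if replicate Pearson r exceeded 0.7 and median Z' exceeded 0.3.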

[2] = compound: Cc1ccc(NC(=O)c2ccc(CN3CCN(C)CC3)cc2)cc1Nc1nccc(-c2cccnc2)n1 [IMATINIB]; test: as above; conditions: exposure time: 5 days
Summary of the method: as §1

Test System | surviving fraction ([1]; 0.5 nM) | surviving fraction ([1]; 1 nM) | surviving fraction ([1]; 5 nM) | surviving fraction ([1]; 10 nM) | surviving fraction ([1]; 50 nM) | surviving fraction ([1]; 100 nM) | surviving fraction ([1]; 500 nM) | surviving fraction ([1]; 1000 nM) | surviving fraction ([2]; 0.5 nM) | surviving fraction ([2]; 1 nM) | surviving fraction ([2]; 5 nM) | surviving fraction ([2]; 10 nM) | surviving fraction ([2]; 50 nM) | surviving fraction ([2]; 100 nM) | surviving fraction ([2]; 500 nM) | surviving fraction ([2]; 1000 nM)
SG31 HEADNECK | 1.07 ± 0.21 | 1.05 ± 0.27 | 1.02 ± 0.078 | 1.01 ± 0.18 | 1.08 ± 0.12 | 1.04 ± 0.042 | 0.948 ± 0.14 | 0.63 ± 0.027 | 1.16 ± 0.19 | 1.33 ± 0.14 | 1.36 ± 0.36 | 1.16 ± 0.33 | 1.07 ± 0.1 | 0.994 ± 0.022 | 1.33 ± 0.21 | 1.18 ± 0.16
SG32 HEADNECK | 0.938 ± 0.1 | 1.18 ± 0.35 | 1.18 ± 0.2 | 0.933 ± 0.053 | 1.03 ± 0.25 | 0.995 ± 0.21 | 0.697 ± 0.16 | 0.344 ± 0.068 |  |  | 1.2 ± 0.18 |  |  | 1 ± 0.14 | 1.17 ± 0.052 | 1.21 ± 0.16
SG43 HEADNECK | 1.08 ± 0.16 | 1.13 ± 0.12 | 0.836 ± 0.23 | 1.03 ± 0.21 | 0.949 ± 0.15 | 1.1 ± 0.033 | 1.04 ± 0.28 | 0.729 ± 0.21 | 1.16 ± 0.41 | 1.07 ± 0.36 | 0.895 ± 0.2 | 1.03 ± 0.23 | 1.01 ± 0.2 | 0.901 ± 0.27 | 1.11 ± 0.13 | 1.16 ± 0.33
SIHA CERVIX | 0.978 ± 0.05 | 0.965 ± 0.018 | 1.07 ± 0.025 | 1.06 ± 0.13 | 1.2 ± 0.032 | 1.17 ± 0.13 | 1.15 ± 0.035 | 1 ± 0.14 | 1.1 ± 0.04 | 1.1 ± 0.054 |  | 1.09 ± 0.065 | 1.15 ± 0.073 | 1.17 ± 0.054 | 1.12 ± 0.076 | 
SJSA1 BONE | 0.793 ± 0.037 | 0.946 ± 0.057 | 0.844 ± 0.049 | 0.953 ± 0.067 | 0.844 ± 0.021 | 0.973 ± 0.059 | 0.544 ± 0.035 | 0.672 ± 0.03 | 1.65 ± 0.051 | 1.71 ± 0.075 | 1.64 ± 0.1 | 1.83 ± 0.1 | 0.61 ± 0.12 | 1.36 ± 0.01 | 1.65 ± 0.039 | 1.33 ± 0.024
SKBR3 BREAST | 1 ± 0.11 | 0.996 ± 0.15 | 0.85 ± 0.03 | 0.915 ± 0.17 | 0.98 ± 0.13 | 1.02 ± 0.15 | 0.433 ± 0.046 | 0.179 ± 0.046 | 1.02 ± 0.2 | 1.09 ± 0.09 |  | 1.11 ± 0.14 | 1.09 ± 0.081 | 1.16 ± 0.063 | 1.24 ± 0.15 | 1.07 ± 0.15
SNU475 LIVER | 0.9603 ± 0.0081 | 0.944 ± 0.021 | 0.966 ± 0.028 | 0.831 ± 0.037 | 0.968 ± 0.027 | 0.941 ± 0.026 | 0.817 ± 0.018 | 0.556 ± 0.024 | 1.04 ± 0.086 |  | 1.06 ± 0.036 | 1.07 ± 0.019 | 1.09 ± 0.0085 |  | 1.06 ± 0.045 | 
SUM44 BREAST | 0.934 ± 0.025 | 0.954 ± 0.037 | 0.951 ± 0.0099 | 1.01 ± 0.086 | 1.07 ± 0.016 | 0.917 ± 0.038 | 0.418 ± 0.031 | 0.294 ± 0.013 | 1.3 ± 0.48 |  | 1.24 ± 0.36 | 1.23 ± 0.28 | 1.27 ± 0.31 |  | 1.26 ± 0.34 | 1.11 ± 0.23
SUM149 BREAST | 1.1 ± 0.12 | 1.03 ± 0.044 | 1.08 ± 0.047 | 0.917 ± 0.038 | 1.06 ± 0.045 | 1.14 ± 0.016 | 0.996 ± 0.066 | 0.71 ± 0.031 | 1.04 ± 0.08 | 1.11 ± 0.047 | 1.07 ± 0.079 | 1.08 ± 0.072 |  | 0.951 ± 0.07 | 0.866 ± 0.045 | 1.01 ± 0.046
SUM149.B1*.S BREAST | 1.05 ± 0.026 | 0.971 ± 0.049 | 1.02 ± 0.047 | 0.845 ± 0.031 | 1.06 ± 0.038 | 1.05 ± 0.052 | 0.82 ± 0.038 | 0.523 ± 0.034 | 1.12 ± 0.041 | 1.11 ± 0.036 | 1.15 ± 0.04 | 1.19 ± 0.035 | 1.19 ± 0.039 | 1.15 ± 0.038 | 1.19 ± 0.051 | 1.18 ± 0.061
SUM159 BREAST | 0.975 ± 0.087 | 0.932 ± 0.16 | 0.929 ± 0.16 | 0.928 ± 0.15 | 0.923 ± 0.24 | 0.882 ± 0.28 | 0.926 ± 0.17 | 0.77 ± 0.29 |  | 1.11 ± 0.015 | 1.11 ± 0.024 | 1.101 ± 0.0045 | 1.126 ± 0.009 |  | 1.14 ± 0.02 | 
SYO1 SYNOVIAL | 0.942 ± 0.068 | 0.895 ± 0.083 | 0.945 ± 0.055 | 0.836 ± 0.025 | 1.03 ± 0.088 | 1.057 ± 0.0096 | 0.563 ± 0.022 | 0.222 ± 0.012 | 1.03 ± 0.05 | 1.02 ± 0.028 | 0.987 ± 0.037 | 0.955 ± 0.031 | 0.921 ± 0.035 | 0.898 ± 0.017 | 0.88 ± 0.056 | 0.888 ± 0.023
T47D BREAST | 0.967 ± 0.026 | 1.01 ± 0.02 | 1.02 ± 0.042 | 1.013 ± 0.006 | 1.08 ± 0.057 | 1.05 ± 0.043 | 0.785 ± 0.02 | 0.449 ± 0.028 | 1.08 ± 0.042 | 1.05 ± 0.016 | 1.1 ± 0.02 | 1.05 ± 0.066 | 1.13 ± 0.027 | 1.08 ± 0.036 | 1.1 ± 0.068 | 1.07 ± 0.056
U2OS BONE | 0.934 ± 0.013 | 1.03 ± 0.015 | 0.995 ± 0.026 | 1.01 ± 0.02 | 1.01 ± 0.016 | 1.04 ± 0.04 | 0.909 ± 0.047 | 0.751 ± 0.051 | 1.06 ± 0.021 | 1.02 ± 0.033 | 1.07 ± 0.028 | 1.05 ± 0.028 | 1.09 ± 0.026 | 1.113 ± 0.0058 | 1.15 ± 0.027 | 1.15 ± 0.018
VCAP PROSTATE | 1.09 ± 0.082 | 1.12 ± 0.054 | 1.15 ± 0.015 | 1.17 ± 0.11 | 1.16 ± 0.11 | 0.994 ± 0.022 | 0.449 ± 0.017 | 0.261 ± 0.04 | 1.11 ± 0.19 | 0.949 ± 0.15 |  | 1.17 ± 0.035 | 1.22 ± 0.12 | 1.12 ± 0.13 |  | 1.05 ± 0.086
VP229 BREAST | 0.931 ± 0.099 | 1.04 ± 0.054 | 1.02 ± 0.11 | 0.924 ± 0.033 | 1.1 ± 0.086 | 1.04 ± 0.022 | 0.6 ± 0.11 | 0.352 ± 0.058 | 1.29 ± 0.17 | 1.22 ± 0.091 | 1.12 ± 0.098 | 1.2 ± 0.3 | 1.35 ± 0.1 |  | 1.16 ± 0.064 | 1.27 ± 0.12
YAMATO SYNOVIAL | 1.31 ± 0.099 | 0.905 ± 0.031 | 1.19 ± 0.027 | 0.742 ± 0.072 | 1.28 ± 0.068 | 1.16 ± 0.016 | 0.82 ± 0.026 | 0.533 ± 0.038 | 1.29 ± 0.055 | 1.19 ± 0.14 | 1.28 ± 0.14 | 1.26 ± 0.078 | 1.23 ± 0.054 | 1.27 ± 0.15 | 1.1 ± 0.11 | 1.05 ± 0.073
ZR751 BREAST | 1.22 ± 0.18 | 1.23 ± 0.18 | 1.16 ± 0.12 | 1.08 ± 0.2 | 1.37 ± 0.13 | 1.4 ± 0.19 | 1.23 ± 0.16 | 1.04 ± 0.17 | 1.23 ± 0.15 | 1.15 ± 0.14 | 1.05 ± 0.1 | 1.17 ± 0.23 | 1.16 ± 0.11 | 1.11 ± 0.063 | 1.13 ± 0.065 | 1.07 ± 0.14
